The target of data set [1] is T1, MDM2-N (Homo sapiens, UniProt Q00987). The experiment in a line: Competitive capillary electrophoresis (CE) assay, compound vs fluorescently labelled p53 peptide (p53-F). It is filed as binding. Conditions: for activity in the assays: CE and FP screening assays; for inhibition at 300 µM: read-out: CE % inhibition at 300 μM. As to the method:
Capillary electrophoresis (CE) is an analytical technique used to study the interaction between biomacromolecules. In CE, electrophoresis is carried out in the interior of a narrow capillary. The technique separates ions based on their electrophoretic mobility with the use of applied voltage. The electrophoretic mobility is dependent on the charge of the molecule, the viscosity and the molecular size. CE is performed using a high voltage to produce a high resolution profile with a short migration time to separate numerous analytes. […] The assay provides a high sensitivity through the use of a Laser Induced Fluorescence (LIF) detector to enable the detection of weak binding fragments. This enables the interaction assay to be performed with a low labelled probe concentration and allows compounds to be screened at low concentrations. A competitive CE assay was used to detect competition between compounds and fluorescently labelled p53 peptide (p53-F) in MDM2-N/p53 binding site. The injection sample contained carboxyfluorescein (internal standard (10pM)) and p53-F (500pM) in TAPS/Tris (1mM) pH 8.0, DTT (1mM). […] After injection of the sample, a voltage of 10kV was applied and separation was carried out for 6.5min.
TR is the migration time of p53-F peak.
TL is the migration time of p53-F peak in the presence of MDM2-N + compound.

The test system of data set [2] is MDM2. Conditions: read-out: literature IC50 value for racemic Nutlin-3; cited from earlier work.
Data set [3] can be described thus: Solubility of the fragments in assay buffer. It is filed as physicochemical. Conditions: aqueous buffer, read-out: Estimated solubility limit. An excerpt: Supplement pone.0121424.s006.docx, table 5 | column: Estimated solubility limit
For data set [4], the target named is T1, MDM2-N. The experiment in a line: Fluorescence polarization (FP) competition assay with p53-F. It is filed as binding. Conditions: read-out: FP % inhibition at 700 μM; compound 700 μM; MDM2-N 500 nM; p53-F 2 nM. How it is done: Fluorescence polarization experiments were performed with a LJL Biosystems Analyst multi-plate reader in 50mM HEPES pH 7.5, 100mM NaCl, 1mM DTT. Fluorescein labelled p53 peptide (p53-F) was synthesised by Biomatiks. […] The competition experiments were carried out by mixing MDM2-N (500nM), p53-F (2nM) and test compound in black NBS plate. […] The inhibition (%) was calculated using the equation below. %Inhibition=100(AF-AL)/(AF-AU) Where: AF is the anisotropy of fully bound p53-F.
AU is the anisotropy of unbound p53-F.
AL is the anisotropy of p53-F in the presence of MDM2-N + compound.
For orientation: In fluorescence polarisation assays a small probe gives low polarisation when free and higher when bound to something large.

Data on eleven compounds can be found in paper PMC4401541, “Structure- and Ligand-Based Virtual Screening Identifies New Scaffolds for Inhibitors of the Oncoprotein MDM2” (PLoS ONE, 2015).

The IC50 is the point on the concentration scale where inhibition reaches its midpoint. By inhibition is commonly meant the share of the control response that was lost under treatment. One may read the solubility as the dissolved amount per volume that the medium holds.

≈ marks a conversion by molar mass, not a printed value.

For `CC1CCN(c2nc3c(c(=O)n(C)c(=O)n3C)n2CC(=O)c2ccccc2)CC1` [Compound 26], the “activity in the assays” value in data set [1] was “inactive”.
As for `COc1ccc(C2=N[C@@H](c3ccc(Cl)cc3)[C@@H](c3ccc(Cl)cc3)N2C(=O)N2CCNC(=O)C2)c(OC(C)C)c1` [Nutlin-3], in data set [2], the IC50 is […].
Regarding `Oc1ccc(Nc2ccccc2)cc1` [Compound 42], the inhibition at 300 µM in data set [1] came out at 52%. In data set [3], the solubility is 250 to 500 µM (≈ 46.3 to 92.6 µg/mL). Moreover, the inhibition at 700 µM in data set [4] came to 60%.
On to `Nc1ccc(Nc2ccccc2)cc1` [Compound 44], for which the inhibition at 300 µM in data set [1] came out at 30%. The solubility in data set [3] is 62.5 to 125 µM (≈ 11.5 to 23 µg/mL). Besides, the inhibition at 700 µM in data set [4] is 8%.
For `O=C(O)c1ccccc1Nc1ccccc1` [Compound 45], the solubility in data set [3] was greater than 1000 µM.
Turning to `CCn1c(=O)c2c(nc(-n3nc(C)cc3C)n2Cc2ccc(F)cc2)n(C)c1=O` [Compound 25], in data set [1], the “activity in the assays” value was “inactive”.
Turning to `O=C1N[C@@](O)(c2ccccc2)c2ccccc21` [Compound 39], the inhibition at 300 µM in data set [1] is 40%. Also, the inhibition at 700 µM in data set [4] turned out to be 13%.
`O=C1Cc2ccccc2N1` [Compound 40]: the inhibition at 300 µM in data set [1] was determined as 28%. In addition, the solubility in data set [3] is greater than 2000 µM. Moreover, in data set [4], the inhibition at 700 µM worked out at 8%.
For the compound `Oc1cccc(Nc2ccccc2)c1` [Compound 41], in data set [1], the inhibition at 300 µM stood at 66%. In addition, in data set [3], the solubility was 250 to 500 µM (≈ 46.3 to 92.6 µg/mL). Moreover, in data set [4], the inhibition at 700 µM was found to be 31%.
`O=C(NCc1ccccc1)N(c1ccccc1)c1ccccc1` [Compound 19]: the inhibition at 300 µM in data set [1] is 42%. Moreover, the inhibition at 700 µM in data set [4] came to 18%.
Turning to `c1ccc(Nc2ccccc2)cc1` [Compound 43], in data set [1], the inhibition at 300 µM came out at 36%. In data set [3], the solubility was 250 to 500 µM (≈ 42.3 to 84.6 µg/mL). In data set [4], the inhibition at 700 µM turned out to be 33%.
